# Where two headings read alike, the source gives them in different places.
# Assays:
# Assay in all cases: microbe, parasite or virus in culture
# Assay type in all cases: cell-based, Hepatitis C virus (HCV)
# HCV replicon 1AQ30D = details: Replicon Assay B
# HCV replicon 1B = details: Replicon Assay B
# HCV replicon 1AY93H = details: Replicon Assay A
# Summary of the method: (§1)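 HCV RNA levels were calculated from Ct values (minus intercept, divided by slope) of a Neo primer/probe standard curve, with cyclophilin quantified the same way. Cells were seeded at 2000/well and incubated with compound for 3 days in 5% serum and 0.5% DMSO.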
# HCV replicon 2B = details: Replicon Assay A
# Summary of the method: as §1
# HCV replicon 1A = details: Replicon Assay A
# Summary of the method: as §1
# [1] = Hepatitis C virus, read-out: 1A Q30D IC50 (nM), replicon 1AQ30D
# [2] = Hepatitis C virus, read-out: 1A Y93H IC50 (nM), replicon 1AY93H
# [3] = Hepatitis C virus, read-out: 2B IC50 (nM), replicon 2B
# [4] = read-out: 1A Q30D IC50, replicon 1AQ30D
# [5] = read-out: 1A Y93H IC50, replicon 1AY93H
smiles,measurement,setting,value
COC(=O)NC(C(=O)N1CCC[C@H]1c1ncc(-c2ccc3c(c2)cc2n3C(c3ccc(CC(C)(C)OC)s3)Oc3cc(-c4cnc([C@@H]5CCCN5C(=O)[C@@H](NC(=O)OC)C(C)C)[nH]4)cc(F)c3-2)[nH]1)C1CCOC(C)(C)C1 (some centres unmarked) [Compound 848],IC50,"HCV replicon 1AQ30D; Hepatitis C virus, read-out: 1A Q30D IC50, HCV replicon 1A Q30D",0.085 nM
same,IC50,"HCV replicon 1B; Hepatitis C virus, HCV replicon 1B",4.5 pM
same,IC50,"HCV replicon 1AY93H; Hepatitis C virus, read-out: 1A Y93H IC50, HCV replicon 1A Y93H",0.01 nM
same,IC50,"HCV replicon 2B; Hepatitis C virus, read-out: 2B IC50, HCV replicon 2B",0.026 nM
same,IC50,"HCV replicon 1A; Hepatitis C virus, HCV replicon 1A",2.9 pM
"COC(=O)NC(C(=O)N1[C@@H]2C[C@@H]2C[C@H]1c1ncc(-c2ccc3c(c2)c(F)c2n3C(c3ccc(C4CC4)s3)Oc3cc(-c4cnc([C@@H]5CCCN5C(=O)[C@@H](NC(=O)OC)C(C)C)[nH]4)ccc3-2)[nH]1)C1C[C@@H](C)O[C@@H](C)C1 (single isomer, unassigned) [Compound 645]",IC50,"HCV replicon 1AQ30D; read-out: 1A Q30D IC50, HCV replicon 1A Q30D",0.25 nM
same,IC50,HCV replicon 1B; HCV replicon 1B,2.4 pM
same,IC50,"HCV replicon 1AY93H; read-out: 1A Y93H IC50, HCV replicon 1A Y93H",0.0222 nM
same,IC50,"HCV replicon 2B; read-out: 2B IC50, HCV replicon 2B",0.0686 nM
same,IC50,HCV replicon 1A; HCV replicon 1A,2.6 pM
COC(=O)NC(C(=O)N1CCC[C@H]1c1ncc(-c2cc(F)c3c(c2)OC(c2ccc(C4CCC4)s2)n2c-3cc3cc(-c4cnc([C@@H]5CCCN5C(=O)[C@@H](NC(=O)OC)C5CCOCC5)[nH]4)ccc32)[nH]1)C(C)(C)F (some centres unmarked) [Compound 250],IC50,HCV replicon 1AQ30D; [1],0.013 nM
same,IC50,"HCV replicon 1B; Hepatitis C virus, replicon 1B",2.9 pM
same,IC50,HCV replicon 1AY93H; [2],0.003 nM
same,IC50,HCV replicon 2B; [3],0.001 nM
same,IC50,"HCV replicon 1A; Hepatitis C virus, replicon 1A",2.2 pM
COC(=O)N[C@H](C(=O)N1CCC[C@@H]1c1ncc(-c2cc(F)c3c(c2)OC(c2ccc(C(C)C)s2)n2c-3cc3cc(-c4c[nH]c([C@@H]5CCCN5C(=O)[C@H](NC(=O)OC)C5C[C@@H](C)O[C@@H](C)C5)n4)ccc32)[nH]1)C(C)C (some centres unmarked) [Compound 241],IC50,HCV replicon 1AQ30D; [4],0.033 nM
same,IC50,HCV replicon 1B; replicon 1B,2.4 pM
same,IC50,HCV replicon 1AY93H; [5],0.005 nM
same,IC50,"HCV replicon 2B; read-out: 2B IC50, replicon 2B",0.016 nM
same,IC50,HCV replicon 1A; replicon 1A,1.6 pM
"COC(=O)NC(C(=O)N1CCC[C@H]1c1ncc(-c2ccc3c(c2)cc2n3C(c3ccc(C4CC4)s3)Oc3cc(-c4cnc([C@@H]5CCCN5C(=O)[C@@H](NC(=O)OC)C(C)C)[nH]4)cc(F)c3-2)[nH]1)C1CCCCO1 (single isomer, unassigned) [Compound 343]",IC50,HCV replicon 1AQ30D; [4],0.704 nM
same,IC50,HCV replicon 1B; replicon 1B,2.3 pM
same,IC50,HCV replicon 1AY93H; [5],0.37 nM
same,IC50,"HCV replicon 2B; read-out: 2B IC50, replicon 2B",0.829 nM
same,IC50,HCV replicon 1A; replicon 1A,1 pM
"COC(=O)N[C@H](C(=O)N1CCC[C@H]1c1ncc(-c2cc(F)c3c(c2)OC(c2ccc(C(C)(C)C)s2)n2c-3cc3cc(-c4cnc([C@@H]5CCCN5C(=O)[C@@H](NC(=O)OC)C(C)C)[nH]4)ccc32)[nH]1)C(C)C (single isomer, unassigned) [Compound 63]",IC50,"HCV replicon 1AQ30D; replicon 1AQ30D, read-out: 1A Q30D IC50",0.34 nM
same,IC50,HCV replicon 1B; replicon 1B,2.4 pM
same,IC50,"HCV replicon 1AY93H; replicon 1AY93H, read-out: 1A Y93H IC50",0.01 nM
same,IC50,"HCV replicon 2B; replicon 2B, read-out: 2B IC50",0.27 nM
same,IC50,HCV replicon 1A; replicon 1A,3.2 pM
"COC(=O)NC(C(=O)N1CCC[C@H]1c1ncc(-c2ccc3c(c2)cc2n3C(c3ccc(C4CC4)s3)Oc3cc(-c4cnc([C@@H]5CCCN5C(=O)[C@@H](NC(=O)OC)C(C)C)[nH]4)cc(F)c3-2)[nH]1)C1C[C@H](C)O[C@@H](C)C1 (single isomer, unassigned) [Compound 403]",IC50,HCV replicon 1AQ30D; [1],0.0703 nM
same,IC50,"HCV replicon 1B; Hepatitis C virus, replicon 1B",3.3 pM
same,IC50,HCV replicon 1AY93H; [5],0.0067 nM
same,IC50,"HCV replicon 2B; read-out: 2B IC50, replicon 2B",0.007 nM
same,IC50,"HCV replicon 1A; Hepatitis C virus, replicon 1A",2.5 pM
COC(=O)NC(C(=O)N1CCC[C@H]1c1ncc(-c2ccc3c(c2)cc2n3C(c3cc(C)c(C)s3)Oc3cc(-c4cnc([C@@H]5CCCN5C(=O)[C@@H](NC(=O)OC)C5CCOCC5)[nH]4)cc(F)c3-2)[nH]1)C(C)(C)F (some centres unmarked) [Compound 128],IC50,HCV replicon 1AQ30D; [1],0.044 nM
same,IC50,"HCV replicon 1B; Hepatitis C virus, replicon 1B",3.6 pM
same,IC50,HCV replicon 1AY93H; [2],0.03 nM
same,IC50,HCV replicon 2B; [3],0.045 nM
same,IC50,"HCV replicon 1A; Hepatitis C virus, replicon 1A",3 pM
"COC(=O)N[C@H](C(=O)N1CCC[C@H]1c1ncc(-c2ccc3c(c2)OC(c2cc4ccccc4s2)n2c-3cc3cc(-c4cnc([C@@H]5CCCN5C(=O)[C@@H](NC(=O)OC)C5CCOCC5)[nH]4)ccc32)[nH]1)C1CCOCC1 (single isomer, unassigned) [Compound 262]",IC50,HCV replicon 1AQ30D; [4],0.12 nM
same,IC50,"HCV replicon 1B; Hepatitis C virus, replicon 1B",4 pM
same,IC50,HCV replicon 1AY93H; [5],0.052 nM
same,IC50,"HCV replicon 2B; read-out: 2B IC50, replicon 2B",0.019 nM
same,IC50,"HCV replicon 1A; Hepatitis C virus, replicon 1A",4.2 pM
"COC(=O)NC(C(=O)N1CCC[C@H]1c1ncc(-c2cc(F)c3c(c2)OC(c2ccc(C4CCC4)s2)n2c-3cc3cc(-c4cnc([C@@H]5CCCN5C(=O)[C@@H](NC(=O)OC)C5CCOCC5)[nH]4)ccc32)[nH]1)C(C)(C)F (single isomer, unassigned) [Compound 251]",IC50,HCV replicon 1AQ30D; [4],0.4 nM
same,IC50,HCV replicon 1B; replicon 1B,2.5 pM
same,IC50,HCV replicon 1AY93H; [5],0.06 nM
same,IC50,"HCV replicon 2B; read-out: 2B IC50, replicon 2B",0.1 nM
same,IC50,HCV replicon 1A; replicon 1A,1.2 pM

# — patent publication US20160257697A1, “THIOPHENE-SUBSTITUTED TETRACYCLIC COMPOUNDS AND METHODS OFUSE THEREOF FOR THE TREATMENT OF VIRAL DISEASES” (priority 2013, published 2016)
